Data taken from patent publication US20230086703A1, “N-(4-(5-chloropyridin-3-yl)phenyl)-2-(2-(cyclopropanesulfonamido)pyrimidin-4-yl) butanamide derivatives and related compounds as human CTPS1 inhibitors for the treatment of proliferative diseases” (Step Pharma S.A.S., priority 2019, published 2023).

Target: T1, human CTPS1 (Homo sapiens, UniProt P17812)
T1 construct: FLAG (with GG linker); His8 (with GG linker); purchased Proteros biostructures GmbH
T1 sequence (P17812 1-591): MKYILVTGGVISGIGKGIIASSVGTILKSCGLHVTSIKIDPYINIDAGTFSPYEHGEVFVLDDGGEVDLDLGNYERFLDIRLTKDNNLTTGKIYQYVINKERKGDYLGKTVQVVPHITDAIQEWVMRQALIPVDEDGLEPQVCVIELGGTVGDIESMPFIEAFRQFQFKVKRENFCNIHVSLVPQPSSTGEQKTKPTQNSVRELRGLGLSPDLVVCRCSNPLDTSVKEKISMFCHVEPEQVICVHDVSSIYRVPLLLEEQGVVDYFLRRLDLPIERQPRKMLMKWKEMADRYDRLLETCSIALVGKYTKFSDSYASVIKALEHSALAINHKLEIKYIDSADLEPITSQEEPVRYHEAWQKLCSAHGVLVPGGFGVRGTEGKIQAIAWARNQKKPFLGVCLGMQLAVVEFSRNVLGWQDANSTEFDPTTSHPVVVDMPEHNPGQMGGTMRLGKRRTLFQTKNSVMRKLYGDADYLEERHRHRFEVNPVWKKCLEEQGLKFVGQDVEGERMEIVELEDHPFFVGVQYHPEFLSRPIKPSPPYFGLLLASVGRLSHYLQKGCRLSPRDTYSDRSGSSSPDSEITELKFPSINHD
Assay: Human CTPS1 enzyme inhibition, ADP-Glo Max assay
Type: biochemical
Conditions: ADP-Glo Max assay; Table 10; read-out: Human CTPS1 Enzyme Inhibition, IC50 grouped by potency range (CTPS1)
Outline: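 Enzyme preincubated with compound for 10 min at 25 °C in 50 mM Tris pH 8.0, 10 mM MgCl2, 0.01% Tween-20, 2 mM L-cysteine. ATP-to-ADP conversion detected by ADP-Glo Max luminescence after 60 min depletion and 60 min development steps. Percentage inhibition calculated per concentration.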

IC50 [nM]	SMILES
100 to 1000	Cc1ncccc1-c1ccc(NC(=O)C(C)(C)c2csc(NS(=O)(=O)C3CC3)n2)cc1 [T103, 2-(2-(cyclopropanesulfonamido)thiazol-4-yl)-2-methyl-N-(4-(2-methylpyridin-3-yl)phenyl)propanamide]
100 to 1000	CC(C)(C(=O)Nc1ccc(-c2cccnn2)cc1)c1csc(NS(=O)(=O)C2CC2)n1 [T68, 2-(2-(cyclopropanesulfonamido)thiazol-4-yl)-2-methyl-N-(4-(pyridazin-3-yl)phenyl)propanamide]
< 100	CC(C)(C(=O)Nc1ccc(-c2cncc(OCC(F)(F)F)n2)cc1F)c1csc(NS(=O)(=O)C2CC2)n1 [T131, 2-(2-(cyclopropanesulfonamido)thiazol-4-yl)-N-(2-fluoro-4-(6-(2,2,2-trifluoroethoxy)pyrazin-2-yl)phenyl)-2-methylpropanamide]
100 to 1000	O=C(Cc1csc(NS(=O)(=O)C2CC2)n1)Nc1ccc(-c2cncnc2)nc1 [T23, 2-(2-(cyclopropanesulfonamido)thiazol-4-yl)-N-(6-(pyrimidin-5-yl)pyridin-3-yl)acetamide]
100 to 1000	CC(C)(C(=O)Nc1ccc(-c2cccnc2)cc1)c1csc(NS(C)(=O)=O)n1 [T163, 2-methyl-2-(2-(methylsulfonamido)thiazol-4-yl)-N-(4-(pyridin-3-yl)phenyl)propanamide]
1000 to 10000	COc1ccc(-c2ccc(NC(=O)C(C)(C)c3csc(NS(=O)(=O)C4CC4)n3)cc2)cn1 [T46, 2-(2-(cyclopropanesulfonamido)thiazol-4-yl)-N-(4-(6-methoxypyridin-3-yl)phenyl)-2-methylpropanamide]
< 100	COc1cncc(-c2ccc(NC(=O)Cc3csc(NS(=O)(=O)C4CC4)n3)cc2)n1 [T81, 2-(2-(cyclopropanesulfonamido)thiazol-4-yl)-N-(4-(6-methoxypyrazin-2-yl)phenyl)acetamide]
100 to 1000	Cc1ncc(-c2ccc(NC(=O)C(C)(C)c3csc(NS(=O)(=O)C4CC4)n3)cc2)nc1C [T282, 2-(2-(cyclopropanesulfonamido)thiazol-4-yl)-N-(4-(5,6-dimethylpyrazin-2-yl)phenyl)-2-methylpropanamide]
< 100	CC(C)(C(=O)Nc1ccc(-c2cncc(F)c2)cn1)c1csc(NS(=O)(=O)C2CC2)n1 [T261, 2-(2-(cyclopropanesulfonamido)thiazol-4-yl)-N-(5′-fluoro-[3,3′-bipyridin]-6-yl)-2-methylpropanamide]
1000 to 10000	Cc1cc(-c2cncc(C#N)n2)ccc1NC(=O)C(C)(C)c1csc(NS(=O)(=O)C2CC2)n1 [T465, N-(4-(6-cyanopyrazin-2-yl)-2-methylphenyl)-2-(2-(cyclopropanesulfonamido)thiazol-4-yl)-2-methylpropanamide]
100 to 1000	CCOc1cncc(-c2ccc(NC(=O)C(C)(C)c3csc(NS(=O)(=O)CCOC)n3)c(F)c2)n1 [T432, N-(4-(6-ethoxypyrazin-2-yl)-2-fluorophenyl)-2-(2-((2-methoxyethyl)sulfonamido)thiazol-4-yl)-2-methylpropanamide]
< 100	CC(C)(C(=O)Nc1ccc(-c2cncc(C(F)(F)F)n2)cc1)c1csc(NS(=O)(=O)C2CC2)n1 [T267, 2-(2-(cyclopropanesulfonamido)thiazol-4-yl)-2-methyl-N-(4-(6-(trifluoromethyl)pyrazin-2-yl)phenyl)propanamide]
100 to 1000	CC(C)(C(=O)Nc1ncc(-c2cnccn2)cc1F)c1csc(NS(=O)(=O)C2CC2)n1 [T110, 2-(2-(cyclopropanesulfonamido)thiazol-4-yl)-N-(3-fluoro-5-(pyrazin-2-yl)pyridin-2-yl)-2-methylpropanamide]
100 to 1000	Cc1ccncc1-c1ccc(NC(=O)Cc2csc(NS(=O)(=O)C3CC3)n2)cc1 [T98, 2-(2-(cyclopropanesulfonamido)thiazol-4-yl)-N-(4-(4-methylpyridin-3-yl)phenyl)acetamide]
< 100	CC(C)(C(=O)Nc1ncc(-c2cncc(C(F)(F)F)n2)cc1F)c1csc(NS(=O)(=O)C2CC2)n1 [T112, 2-(2-(cyclopropanesulfonamido)thiazol-4-yl)-N-(3-fluoro-5-(6-(trifluoromethyl)pyrazin-2-yl)pyridin-2-yl)-2-methylpropanamide]
< 100	COc1cncc(-c2ccc(NC(=O)C(C)(C)c3csc(NS(=O)(=O)C4CC4)n3)cc2)n1 [T265, 2-(2-(cyclopropanesulfonamido)thiazol-4-yl)-N-(4-(6-methoxypyrazin-2-yl)phenyl)-2-methylpropanamide]
100 to 1000	CN(C(=O)Cc1csc(NS(=O)(=O)C2CC2)n1)c1ccc(-c2cccnc2)cc1 [T26, 2-(2-(cyclopropanesulfonamido)thiazol-4-yl)-N-methyl-N-(4-(pyridin-3-yl)phenyl)acetamide]
< 100	CC(C)(C(=O)Nc1ccc(-c2cncc(C(F)(F)F)c2)cc1)c1csc(NS(=O)(=O)C2CC2)n1 [T48, 2-(2-(cyclopropanesulfonamido)thiazol-4-yl)-2-methyl-N-(4-(5-(trifluoromethyl)pyridin-3-yl)phenyl)propanamide]
< 100	CC(C)(C(=O)Nc1ccc(-c2cnccn2)cc1)c1csc(NS(=O)(=O)C2CC2)n1 [T32, 2-(2-(cyclopropanesulfonamido)thiazol-4-yl)-2-methyl-N-(4-(pyrazin-2-yl)phenyl)propanamide]
1000 to 10000	Cc1sc(NS(=O)(=O)C2CC2)nc1C(C)(C)C(=O)Nc1ccc(-c2cccnc2)cc1 [T319, 2-(2-(cyclopropanesulfonamido)-5-methylthiazol-4-yl)-2-methyl-N-(4-(pyridin-3-yl)phenyl)propanamide]
< 100	CC(C)Oc1cncc(-c2ccc(NC(=O)C(C)(C)c3csc(NS(=O)(=O)C4CC4)n3)cc2)n1 [T272, 2-(2-(cyclopropanesulfonamido)thiazol-4-yl)-N-(4-(6-isopropoxypyrazin-2-yl)phenyl)-2-methylpropanamide]
< 100	O=C(Cc1csc(NS(=O)(=O)C2CC2)n1)Nc1ccc(-c2cnccn2)cc1 [T82, 2-(2-(cyclopropanesulfonamido)thiazol-4-yl)-N-(4-(pyrazin-2-yl)phenyl)acetamide]
100 to 1000	CC(C)(C(=O)Nc1ccc(-c2cccc(OC(F)(F)F)c2)cn1)c1csc(NS(=O)(=O)C2CC2)n1 [T236, 2-(2-(cyclopropanesulfonamido)thiazol-4-yl)-2-methyl-N-(5-(3-(trifluoromethoxy)phenyl)pyridin-2-yl)propanamide]
100 to 1000	COc1cc(NC(=O)C(C)(C)c2csc(NS(=O)(=O)C3CC3)n2)ccc1-c1cccnc1 [T150, 2-(2-(cyclopropanesulfonamido)thiazol-4-yl)-N-(3-methoxy-4-(pyridin-3-yl)phenyl)-2-methylpropanamide]
< 100	CCOc1cncc(-c2ccc(NC(=O)C(CC)(CC)c3csc(NS(=O)(=O)C4CC4)n3)nc2)c1 [T145, 2-(2-(cyclopropanesulfonamido)thiazol-4-yl)-N-(5′-ethoxy-[3,3′-bipyridin]-6-yl)-2-ethylbutanamide]
< 100	CCOc1cncc(-c2ccc(NC(=O)Cc3csc(NS(=O)(=O)C4CC4)n3)cc2)n1 [T424, 2-(2-(cyclopropanesulfonamido)thiazol-4-yl)-N-(4-(6-ethoxypyrazin-2-yl)phenyl)acetamide]
1000 to 10000	COc1ncc(-c2ccc(NC(=O)Cc3csc(NS(=O)(=O)C4CC4)n3)cc2)cn1 [T242, 2-(2-(cyclopropanesulfonamido)thiazol-4-yl)-N-(4-(2-methoxypyrimidin-5-yl)phenyl)acetamide]
